# Like-named read-outs stand apart in the source and are kept apart here.
# Tests used:
# Past. haemolytica PA5 = assay: MIC against veterinary bacteria in vitro; settings: Mannheimia haemolytica, PA5, 18 h
# Method: (§1) The activity of the compounds of the Examples against various veterinarily important bacteria, was assayed in vitro using two-fold serial dilutions in Diagnostic Sensitivity Test Agar inoculated with 10^4 organisms.
# M. hyorhinis ATCC 23234 = assay: MIC against mycoplasma in vitro; format: cell-based; settings: Mesomycoplasma hyorhinis, ATCC23234, 144 h
# Bord. bronchiseptica B08 = assay: MIC against veterinary bacteria in vitro; settings: Bordetella bronchiseptica, B08, 18 h
# Method: as §1
# E. coli E1 = assay: MIC against veterinary bacteria in vitro; settings: Escherichia coli, E1, 18 h
# Method: as §1
# Staph. aureus Oxford = assay: MIC against veterinary bacteria in vitro; settings: Staphylococcus aureus, 18 h
# Method: as §1
# [1] = test system: M. suipneumoniae NCTC 10110; assay: MIC against mycoplasma in vitro; format: cell-based; settings: Mesomycoplasma hyopneumoniae, NCTC10110, 144 h
# M. gallisepticum S6 = assay: MIC against mycoplasma in vitro; format: cell-based; settings: Mycoplasmoides gallisepticum
# [2] = test system: Erysipelothrix rhusiopathiae NCTC 8163; assay: MIC against veterinary bacteria in vitro; settings: Erysipelothrix rhusiopathiae, NCTC8163, 18 h
# Method: as §1
# [3] = test system: Staph. aureus 152 (pen. sens); assay: MIC against veterinary bacteria in vitro; settings: Staphylococcus aureus, 18 h
# Method: as §1
# Past. multocida PA2 = assay: MIC against veterinary bacteria in vitro; settings: Pasteurella multocida, PA2, 18 h
# Method: as §1
# Strep. dysgalactiae SPD1 = assay: MIC against veterinary bacteria in vitro; settings: Streptococcus dysgalactiae, SPD1, 18 h
# Method: as §1
# [4] = test system: Haemophilus influenzae Q1; assay: MIC against human bacteria in vitro; format: cell-based
# Strep. pneumoniae CN33 = assay: MIC against human bacteria in vitro; format: cell-based; settings: Streptococcus pneumoniae
# [5] = test system: M. suipneumoniae PW/C/210; assay: MIC against mycoplasma in vitro; format: cell-based; settings: Mesomycoplasma hyopneumoniae, 144 h
# Bord. bronchiseptica B09 = assay: MIC against veterinary bacteria in vitro; settings: Bordetella bronchiseptica, B09, 18 h
# Method: as §1
# M. pneumoniae ATCC 15492 = assay: MIC against mycoplasma in vitro; format: cell-based; settings: Mycoplasmoides pneumoniae, ATCC15492, 144 h
# M. suipneumoniae LABER = assay: MIC against mycoplasma in vitro; format: cell-based; settings: Mesomycoplasma hyopneumoniae, 144 h
# E. coli NCTC 10418 [6] = assay: MIC against human bacteria in vitro; format: cell-based; settings: Escherichia coli
# S. typhimurium S18 = assay: MIC against veterinary bacteria in vitro; settings: Salmonella enterica, TYPHIMURIUM, 18 h
# Method: as §1
# M. suipneumoniae UCD 1 = assay: MIC against mycoplasma in vitro; format: cell-based; settings: Mesomycoplasma hyopneumoniae, UCD1, 144 h
# M. bovis NCTC 10131 = assay: microbe, parasite or virus in culture; format: cell-based; settings: NCTC10131, 144 h
# M. suipneumoniae HK(2) = assay: MIC against mycoplasma in vitro; format: cell-based; settings: Mesomycoplasma hyopneumoniae, 144 h
# E. coli NCTC 10418 [7] = assay: MIC against veterinary bacteria in vitro; settings: Escherichia coli, NCTC10418, 18 h
# Method: as §1
# [8] = 144 h, M. gallisepticum S6, 6 days, 37° C., read-out: MIC
# [9] = Haemophilus influenzae Q1, 5% chocolated horse blood agar, 18 hours, read-out: MIC
# [10] = Strep. pneumoniae CN33, 5% chocolated horse blood agar, 18 hours, read-out: MIC
# [11] = M. pneumoniae ATCC 15492, 6 days, 37° C., read-out: MIC
# [12] = NCTC10418, E. coli NCTC 10418, agar with 5% chocolated horse blood, 18 hours, 37° C., read-out: MIC
# [13] = Haemophilus influenzae, Q1, 18 h
# [14] = M. hyorhinis ATCC 23234, 6 days, 37° C., read-out: MIC
# [15] = M. suipneumoniae NCTC 10110, 6 days, 37° C., read-out: MIC
# [16] = M. suipneumoniae PW/C/210, 6 days, 37° C., read-out: MIC
# [17] = M. suipneumoniae LABER, 6 days, 37° C., read-out: MIC
# [18] = M. suipneumoniae UCD 1, 6 days, 37° C., read-out: MIC
# [19] = M. suipneumoniae HK(2), 6 days, 37° C., read-out: MIC
Compound,MIC (Past. haemolytica PA5),MIC (Bord. bronchiseptica B08),MIC (E. coli E1),MIC (Staph. aureus Oxford),MIC (M. gallisepticum S6; [8]),MIC [2],MIC [3],MIC (Past. multocida PA2),MIC (Strep. dysgalactiae SPD1),"MIC [4, 9]",MIC (Strep. pneumoniae CN33; [10]),MIC (Bord. bronchiseptica B09),MIC (M. pneumoniae ATCC 15492; [11]),MIC (S. typhimurium S18),MIC (M. bovis NCTC 10131),MIC (E. coli NCTC 10418 [7]),MIC (M. hyorhinis ATCC 23234; [14]),"MIC [1, 15]",MIC (M. suipneumoniae UCD 1; [18]),MIC (M. suipneumoniae HK(2); [19]),also measured
"C/C(=C\c1ncc(C)o1)C[C@@H]1OC[C@H](C[C@@H]2O[C@H]2[C@@H](C)[C@H](C)O)[C@@H](O)[C@H]1O [Example 14, 5-Methyl-2-(1-normon-2-yl) oxazole A]",> 80 µg/mL,> 80 µg/mL,> 80 µg/mL,10 µg/mL,> 10 µg/mL,> 80 µg/mL,10 µg/mL,10 µg/mL,2.5 µg/mL,2 µg/mL,32 µg/mL,> 80 µg/mL,> 10 µg/mL,> 80 µg/mL,0.05 µg/mL,> 80 µg/mL,,,,,MIC (M. hyorhinis ATCC 23234): 2.5 µg/mL; MIC [1]: 5 µg/mL; MIC [5]: 2.5 µg/mL; MIC (M. suipneumoniae LABER): 2.5 µg/mL; MIC (E. coli NCTC 10418 [6]; [12]): > 128 µg/mL; MIC (M. suipneumoniae UCD 1): 5 µg/mL; MIC (M. suipneumoniae HK(2)): 5 µg/mL
C/C(=C\c1ncc(-c2ccc(S(C)(=O)=O)cc2)o1)C[C@@H]1OC[C@H](C[C@@H]2O[C@H]2[C@@H](C)[C@H](C)O)[C@@H](O)[C@H]1O [Example 10],40 µg/mL,> 80 µg/mL,> 80 µg/mL,2.5 µg/mL,,> 80 µg/mL,2.5 µg/mL,1.25 µg/mL,2.5 µg/mL,,8 µg/mL,40 µg/mL,,> 80 µg/mL,0.01 µg/mL,> 80 µg/mL,,,,,"MIC (M. hyorhinis ATCC 23234): 0.025 µg/mL; MIC [1]: 0.05 µg/mL; MIC (M. gallisepticum S6; S6, 144 h): 0.1 µg/mL; MIC [4, 13]: 1 µg/mL; MIC [5]: 0.025 µg/mL; MIC (M. pneumoniae ATCC 15492): 0.1 µg/mL; MIC (M. suipneumoniae LABER): 0.025 µg/mL; MIC (E. coli NCTC 10418 [6]; [12]): > 128 µg/mL; MIC (M. suipneumoniae UCD 1): 0.05 µg/mL; MIC (M. suipneumoniae HK(2)): 0.05 µg/mL"
"CSc1ccc(-c2cnc(/C=C(\C)C[C@@H]3OC[C@H](C[C@@H]4O[C@H]4[C@@H](C)[C@H](C)O)[C@@H](O)[C@H]3O)o2)cc1 [Example 9, 5-p-methylthiophenyl-2-(1-normon-2-yl)oxazole A]",40 µg/mL,40 µg/mL,> 80 µg/mL,0.625 µg/mL,,80 µg/mL,0.625 µg/mL,5 µg/mL,0.625 µg/mL,,10 µg/mL,40 µg/mL,,> 80 µg/mL,0.05 µg/mL,> 80 µg/mL,0.5 µg/mL,,,,"MIC [1]: 0.5 µg/mL; MIC (M. gallisepticum S6; S6, 144 h): 1 µg/mL; MIC [4, 13]: 5 µg/mL; MIC [5]: 0.5 µg/mL; MIC (M. pneumoniae ATCC 15492): 1 µg/mL; MIC (M. suipneumoniae LABER): 0.5 µg/mL; MIC (E. coli NCTC 10418 [6]; NCTC10418, 18 h): > 100 µg/mL; MIC (M. suipneumoniae UCD 1): 0.5 µg/mL; MIC (M. suipneumoniae HK(2)): 0.5 µg/mL"
"COC(=O)CCCCCCCc1cnc(/C=C(\C)C[C@@H]2OC[C@H](C[C@@H]3O[C@H]3[C@@H](C)[C@H](C)O)[C@@H](O)[C@H]2O)o1 [Example 7, 5-(7-Methoxycarbonylheptyl)-2-(1-normon-2-yl)oxazole A]",> 80 µg/mL,40 µg/mL,> 80 µg/mL,5 µg/mL,> 10 µg/mL,> 80 µg/mL,5 µg/mL,20 µg/mL,2.5 µg/mL,,25 µg/mL,40 µg/mL,> 10 µg/mL,> 80 µg/mL,0.1 µg/mL,> 80 µg/mL,10 µg/mL,10 µg/mL,> 10 µg/mL,> 10 µg/mL,"MIC [4, 13]: 0.5 µg/mL; MIC [5, 16]: 10 µg/mL; MIC (M. suipneumoniae LABER; [17]): 10 µg/mL; MIC (E. coli NCTC 10418 [6]; NCTC10418, 18 h): > 100 µg/mL"
"C/C(=C\c1ncc(-c2ccc([S+](C)[O-])cc2)o1)C[C@@H]1OC[C@H](C[C@@H]2O[C@H]2[C@@H](C)[C@H](C)O)[C@@H](O)[C@H]1O (stereo partly drawn) [Example 11, 5-p-Methylsulphinylphenyl-2-(1-normon-2-yl) oxazole A]",40 µg/mL,> 80 µg/mL,> 80 µg/mL,2.5 µg/mL,0.5 µg/mL,> 80 µg/mL,2.5 µg/mL,0.625 µg/mL,1.25 µg/mL,2 µg/mL,4 µg/mL,40 µg/mL,0.5 µg/mL,> 80 µg/mL,≤ 0.01 µg/mL,> 80 µg/mL,0.1 µg/mL,0.25 µg/mL,0.25 µg/mL,0.25 µg/mL,"MIC [5, 16]: 0.1 µg/mL; MIC (M. suipneumoniae LABER; [17]): 0.1 µg/mL; MIC (E. coli NCTC 10418 [6]; [12]): > 128 µg/mL"
"C/C(=C\c1nc(C)c(C)o1)C[C@@H]1OC[C@H](C[C@@H]2O[C@H]2[C@@H](C)[C@H](C)O)[C@@H](O)[C@H]1O [Example 39, 4,5-Dimethyl-2-(1-normon-2-yl)oxazole A]",80 µg/mL,> 80 µg/mL,> 80 µg/mL,> 80 µg/mL,> 10 µg/mL,> 80 µg/mL,> 80 µg/mL,40 µg/mL,> 80 µg/mL,5 µg/mL,,> 80 µg/mL,> 10 µg/mL,> 80 µg/mL,5 µg/mL,> 80 µg/mL,> 10 µg/mL,> 10 µg/mL,> 10 µg/mL,> 10 µg/mL,"MIC (Strep. pneumoniae CN33; CN33, 18 h): 100 µg/mL; MIC [5, 16]: > 10 µg/mL; MIC (M. suipneumoniae LABER; [17]): > 10 µg/mL; MIC (E. coli NCTC 10418 [6]; NCTC10418, 18 h): > 100 µg/mL"
"C/C(=C\c1ncc(CCCCCCCC(=O)O)o1)C[C@@H]1OC[C@H](C[C@@H]2O[C@H]2[C@@H](C)[C@H](C)O)[C@@H](O)[C@H]1O [Example 12, Sodium 8-[2-(1-normon-2-yl)-5-oxazolyl]-octanoate A]",40 µg/mL,> 40 µg/mL,> 40 µg/mL,0.625 µg/mL,> 10 µg/mL,> 40 µg/mL,0.625 µg/mL,0.156 µg/mL,0.625 µg/mL,1 µg/mL,16 µg/mL,20 µg/mL,> 10 µg/mL,> 40 µg/mL,0.05 µg/mL,> 40 µg/mL,5 µg/mL,> 10 µg/mL,> 10 µg/mL,> 10 µg/mL,"MIC [5, 16]: 10 µg/mL; MIC (M. suipneumoniae LABER; [17]): > 10 µg/mL; MIC (E. coli NCTC 10418 [6]; [12]): > 16 µg/mL"
"C/C(=C\c1nc(C)c(-c2ccccc2)o1)C[C@@H]1OC[C@H](C[C@@H]2O[C@H]2[C@@H](C)[C@H](C)O)[C@@H](O)[C@H]1O [Example 40, 4-Methyl-2-(1-normon-2-yl)-5-phenyloxazole A]",> 80 µg/mL,> 80 µg/mL,> 80 µg/mL,80 µg/mL,> 10 µg/mL,> 80 µg/mL,80 µg/mL,80 µg/mL,> 80 µg/mL,50 µg/mL,,> 80 µg/mL,> 10 µg/mL,> 80 µg/mL,5 µg/mL,> 80 µg/mL,> 10 µg/mL,> 10 µg/mL,> 10 µg/mL,> 10 µg/mL,"MIC (Strep. pneumoniae CN33; CN33, 18 h): > 100 µg/mL; MIC [5, 16]: > 10 µg/mL; MIC (M. suipneumoniae LABER; [17]): > 10 µg/mL; MIC (E. coli NCTC 10418 [6]; NCTC10418, 18 h): > 100 µg/mL"
"C/C(=C\c1ncc(-c2ccccc2)o1)C[C@@H]1OC[C@H](C[C@@H]2O[C@H]2[C@@H](C)[C@H](C)O)[C@@H](O)[C@H]1O [Example 1, 2-(1-normon-2-yl)-5-phenyloxazole A]",80 µg/mL,80 µg/mL,> 80 µg/mL,1.25 µg/mL,2.5 µg/mL,80 µg/mL,1.25 µg/mL,1.25 µg/mL,0.625 µg/mL,1 µg/mL,2.5 µg/mL,20 µg/mL,2.5 µg/mL,> 80 µg/mL,≤ 0.01 µg/mL,> 80 µg/mL,,1 µg/mL,1 µg/mL,1 µg/mL,MIC (M. hyorhinis ATCC 23234): 0.5 µg/mL; MIC [5]: 0.5 µg/mL; MIC (M. suipneumoniae LABER): 0.5 µg/mL; MIC (E. coli NCTC 10418 [6]; [12]): > 100 µg/mL

# — US5041567A, “Antibacterial monic acid derivatives” (Beecham Group plc, priority 1982, dated 1991)
